This is an account of results in patent publication US20240376099A1, “COMPOUNDS AND COMPOSITIONS AS INHIBITORS OF ENDOSOMAL TOLL-LIKE RECEPTORS” (Novartis AG, priority 2016, published 2024).

SMILES strings stand for the structures.

The term IC50 denotes the concentration that inhibits the measured activity by half.

The test deals with T1, TLR8 (Homo sapiens, UniProt Q9NR97).
T1 sequence (Q9NR97 27-1041): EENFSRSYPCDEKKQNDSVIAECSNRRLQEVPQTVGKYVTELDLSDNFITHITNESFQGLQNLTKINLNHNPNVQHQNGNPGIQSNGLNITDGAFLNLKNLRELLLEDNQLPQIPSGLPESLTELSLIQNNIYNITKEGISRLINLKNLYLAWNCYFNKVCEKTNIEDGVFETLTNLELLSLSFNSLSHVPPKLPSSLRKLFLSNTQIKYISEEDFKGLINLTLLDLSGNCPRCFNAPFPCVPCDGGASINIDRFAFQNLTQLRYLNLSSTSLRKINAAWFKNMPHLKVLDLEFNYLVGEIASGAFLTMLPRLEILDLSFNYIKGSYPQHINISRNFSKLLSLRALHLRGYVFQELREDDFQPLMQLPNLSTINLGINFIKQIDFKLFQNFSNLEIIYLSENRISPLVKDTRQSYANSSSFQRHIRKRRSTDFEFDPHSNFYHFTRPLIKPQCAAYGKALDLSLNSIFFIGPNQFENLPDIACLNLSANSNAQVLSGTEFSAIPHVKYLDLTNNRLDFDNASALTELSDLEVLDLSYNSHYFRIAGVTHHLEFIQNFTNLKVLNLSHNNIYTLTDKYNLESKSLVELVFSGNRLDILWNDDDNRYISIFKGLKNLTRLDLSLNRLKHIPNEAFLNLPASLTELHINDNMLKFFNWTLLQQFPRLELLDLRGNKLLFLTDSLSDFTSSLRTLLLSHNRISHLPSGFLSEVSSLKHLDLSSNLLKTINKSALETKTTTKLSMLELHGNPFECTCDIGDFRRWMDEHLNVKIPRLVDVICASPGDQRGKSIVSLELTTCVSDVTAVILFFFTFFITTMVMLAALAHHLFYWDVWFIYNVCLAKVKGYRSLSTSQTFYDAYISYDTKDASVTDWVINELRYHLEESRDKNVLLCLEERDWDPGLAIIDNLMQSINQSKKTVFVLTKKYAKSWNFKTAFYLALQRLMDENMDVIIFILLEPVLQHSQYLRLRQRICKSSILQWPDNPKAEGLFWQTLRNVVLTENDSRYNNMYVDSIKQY
The experiment in a line: huPBMC TLR8 Antagonist IL-6 TR-FRET Assay. The format is cell-based. Conditions: human PBMCs stimulated with ssRNA40 1 μg/ml (DOTAP), 14-16 hrs; IL-6 TR-FRET read-out. Also on record: Fresh blood was collected from normal human donors; endogenous in cells; host or cells: human PBMCs from fresh donor blood. The method, boiled down: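 Human PBMCs from fresh donor blood (150,000 cells/well) stimulated 14–16 h at 37 °C with DOTAP-complexed ssRNA40 (final 1 μg/ml for TLR8, 10 μg/mL for TLR7) or ODN2216 (final 0.3 μM, TLR9), 0.25% DMSO, ten-point 1/3 compound dilutions. Supernatant IL-6 read by HTRF (TLR8); IFNα by IFNα2b AlphaLISA (TLR7/TLR9).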
For orientation: TR-FRET usually uses a lanthanide donor and a delayed reading to cut background.
For the compound `Cc1cc(N2CCc3c(c(C)nn3CC34CCC(N5CCOC[C@@H]5C)(CC3)CC4)C2)c2cnn(C)c2n1` [compound 128, (S)-4-(4-((5-(1,6-dimethyl-1H-pyrazolo[3,4-b]pyridin-4-yl)-3-methyl-4,5,6,7-tetrahydro-1H-pyrazolo[4,3-c]pyridin-1-yl)methyl)bicyclo[2.2.2]octan-1-yl)-3-methylmorpholine], the IC50 stood at 13 nM.

For `Cc1cc(N2CCc3c(c(C)nn3CC34CCC(NC5COC5)(CC3)CC4)C2)c2cnn(C)c2n1` [Compound No. 6, N-(4-((5-(1,6-dimethyl-1H-pyrazolo[3,4-b]pyridin-4-yl)-3-methyl-4,5,6,7-tetrahydro-1H-pyrazolo[4,3-c]pyridin-1-yl)methyl)bicyclo[2.2.2]octan-1-yl)oxetan-3-amine], the IC50 was 135 nM.

Turning to `COCCNC12CCC(Cn3nc(C)c4c3CCN(c3ccnc(-c5ccccc5)c3)C4)(CC1)CC2` [compound 130, N-(2-methoxyethyl)-4-((3-methyl-5-(2-phenylpyridin-4-yl)-4,5,6,7-tetrahydro-1H-pyrazolo[4,3-c]pyridin-1-yl)methyl)bicyclo[2.2.2]octan-1-amine], the IC50 was 2830 nM.

In the case of `Cc1nc(N2CCc3c(c(C)nn3CC34CCC(NC5CCC5)(CC3)CC4)C2)c2c(n1)c(C)nn2C` [compound 27, N-cyclobutyl-4-((3-methyl-5-(1,3,5-trimethyl-1H-pyrazolo[4,3-d]pyrimidin-7-yl)-4,5,6,7-tetrahydro-1H-pyrazolo[4,3-c]pyridin-1-yl)methyl)bicyclo[2.2.2]octan-1-amine], the IC50 was found to be 14 nM.

For the compound `Cc1nn(CC23CCC(N)(CC2)CC3)c2c1CN(c1nc(Cl)nc3cnn(C)c13)CC2` [compound 15, 4-((5-(5-chloro-1-methyl-1H-pyrazolo[4,3-d]pyrimidin-7-yl)-3-mehtyl-4,5,6,7-tetrahydro-1H-pyrazolo[4,3-c]pyridin-1-yl)methyl)bicyclo[2.2.2]octan-1-amine], the 50% inhibitory concentration (IC50) was 203 nM.

For `Cc1cc(N2CCc3c(c(C)nn3CC34CCC(NC(=O)CN5CC(F)C5)(CC3)CC4)C2)c2cnn(C)c2n1` [Compound No. 133, N-(4-((5-(1,6-dimethyl-1H-pyrazolo[3,4-b]pyridin-4-yl)-3-methyl-4,5,6,7-tetrahydro-1H-pyrazolo[4,3-c]pyridin-1-yl)methyl)bicyclo[2.2.2]octan-1-yl)-2-(3-fluoroazetidin-1-yl)acetamide], the IC50 is 806 nM.

Take `Cc1cc(N2CCc3c(c(C)nn3CC34CCC(NC(=O)CN5CC(O)C5)(CC3)CC4)C2)c2cnn(C)c2n1` [Compound No. 136, N-(4-((5-(1,6-dimethyl-1H-pyrazolo[3,4-b]pyridin-4-yl)-3-methyl-4,5,6,7-tetrahydro-1H-pyrazolo[4,3-c]pyridin-1-yl)methyl)bicyclo[2.2.2]octan-1-yl)-2-(3-hydroxyazetidin-1-yl)acetamide]: the IC50 was 178 nM.

As for `CN[C@@H](C)C(=O)NC12CCC(Cn3nc(C)c4c3CCN(c3cc(C)nc5c3cnn5C)C4)(CC1)CC2` [compound 118], the IC50 is 197 nM.

Take `Cc1cc(N2CCc3c(c(C(F)(F)F)nn3CC34CCC(N)(CC3)CC4)C2)c2cnn(C)c2n1` [compound 45, 4-((5-(1,6-dimethyl-1H-pyrazolo[3,4-b]pyridin-4-yl)-3-(trifluoromethyl)-4,5,6,7-tetrahydro-1H-pyrazolo[4,3-c]pyridin-1-yl)methyl)bicyclo[2.2.2]octan-1-amine]: the IC50 amounted to 630 nM.

Regarding `Cc1cc(N2CCc3c(c(C)nn3CC34CCC(NCC5CCC5)(CC3)CO4)C2)c2cnn(C)c2n1` [compound 112, N-(cyclobutylmethyl)-1-((5-(1,6-dimethyl-1H-pyrazolo[3,4-b]pyridin-4-yl)-3-methyl-4,5,6,7-tetrahydro-1H-pyrazolo[4,3-c]pyridin-1-yl)methyl)-2-oxabicyclo[2.2.2]octan-4-amine], the IC50 worked out at 56 nM.

Consider `CCNC12CCC(Cn3nc(C)c4c3CCN(c3ccnc(-c5ccccc5)c3)C4)(CC1)CC2` [compound 127, N-ethyl-4-((3-methyl-5-(2-phenylpyridin-4-yl)-4,5,6,7-tetrahydro-1H-pyrazolo[4,3-c]pyridin-1-yl)methyl)bicyclo[2.2.2]octan-1-amine], for which the IC50 is 1430 nM.

With `Cc1nn(CC23CCC(N)(CC2)CC3)c2c1CN(c1nc(N)nc3c1cnn3C)CC2` [compound 13, 4-(1-((4-aminobicyclo[2.2.2]octan-1-yl)methyl)-3-methyl-6,7-dihydro-1H-pyrazolo[4,3-c]pyridin-5(4H)-yl)-1-methyl-1H-pyrazolo[3,4-d]pyrimidin-6-amine], the IC50 is 1350 nM.

For the compound `COCCNC12CCC(Cn3nc(C)c4c3CCN(c3nc(C)nc5c(C)nn(C)c35)C4)(CC1)CC2` [compound 18, N-(2-methoxyethyl)-4-((3-methyl-5-(1,3,5-trimethyl-1H-pyrazolo[4,3-d]pyrimidin-7-yl)-4,5,6,7-tetrahydro-1H-pyrazolo[4,3-c]pyridin-1-yl)methyl)bicyclo[2.2.2]octan-1-amine], the IC50 amounted to 77 nM.

For the compound `Cc1nc(N2CCc3c(c(C)nn3CC34CCC(NCC5COC5)(CC3)CC4)C2)c2c(n1)c(C)nn2C` [compound 23, 4-((3-methyl-5-(1,3,5-trimethyl-1H-pyrazolo[4,3-c]pyrimidin-7-yl)-4,5,6,7-tetrahydro-1H-pyrazolo[4,3-c]pyridin-1-yl)methyl)-N-(oxetan-3-ylmethyl)bicyclo[2.2.2]octan-1-amine], the IC50 was determined as 373 nM.

`CCNCC(=O)NC12CCC(Cn3nc(C)c4c3CCN(c3nc(C)nc5c(C)nn(C)c35)C4)(CC1)CC2` [compound 22, 2-(ethylamino)-N-(4-((3-methyl-5-(1,3,5-trimethyl-1H-pyrazolo[4,3-c]pyrimidin-7-yl)-4,5,6,7-tetrahydro-1H-pyrazolo[4,3-c]pyridin-1-yl)methyl)bicyclo[2.2.2]octan-1-yl)acetamide]: the IC50 was 14 nM.

Take `Cc1cc(N2CCc3c(c(C)nn3CC34CCC(NCC(=O)N5CCCC5)(CC3)CC4)C2)c2cnn(C)c2n1` [compound 106, 2-((4-((5-(1,6-dimethyl-1H-pyrazolo[3,4-b]pyridin-4-yl)-3-methyl-4,5,6,7-tetrahydro-1H-pyrazolo[4,3-c]pyridin-1-yl)methyl)bicyclo[2.2.2]octan-1-yl)amino)-1-(pyrrolidin-1-yl)ethanone]: the IC50 was found to be 168 nM.

Regarding `Cc1nc(N2CCc3c(c(C)nn3CC34CCC(N5CCCC5)(CC3)CC4)C2)c2c(n1)c(C)nn2C` [compound 17, 1,3,5-trimethyl-7-(3-methyl-1-((4-(pyrrolidin-1-yl)bicyclo[2.2.2]octan-1-yl)methyl)-6,7-dihydro-1H-pyrazolo[4,3-c]pyridin-5(4H)-yl)-1H-pyrazolo[4,3-d]pyrimidine], the IC50 turned out to be 199 nM.

In the case of `Cc1nc(N2CCc3c(c(C)nn3CC34CCC(N5CCCC5)(CC3)CC4)C2)c2cn[nH]c2n1` [compound 30, 6-methyl-4-(3-methyl-1-((4-(pyrrolidin-1-yl)bicyclo[2.2.2]octan-1-yl)methyl)-6,7-dihydro-1H-pyrazolo[4,3-c]pyridin-5(4H)-yl)-1H-pyrazolo[3,4-d]pyrimidine], the IC50 is 324 nM.

`Cc1nc(N2CCc3c(c(C)nn3CC34CCC(NCC5(CO)COC5)(CC3)CC4)C2)c2c(n1)c(C)nn2C` [compound 31, (3-(((4-((3-methyl-5-(1,3,5-trimethyl-1H-pyrazolo[4,3-d]pyrimidin-7-yl)-4,5,6,7-tetrahydro-1H-pyrazolo[4,3-c]pyridin-1-yl)methyl)bicyclo[2.2.2]octan-1-yl)amino)methyl)oxetan-3-yl)methanol]: the IC50 worked out at 27 nM.

On to `Cc1cc(N2CCc3c(c(C)nn3CC34CCC(N5C[C@@H](C)O[C@H](C)C5)(CC3)CC4)C2)c2cnn(C)c2n1` [compound 113, (2R,6R)-4-(4-((5-(1,6-dimethyl-1H-pyrazolo[3,4-b]pyridin-4-yl)-3-methyl-4,5,6,7-tetrahydro-1H-pyrazolo[4,3-c]pyridin-1-yl)methyl)bicyclo[2.2.2]octan-1-yl)-2,6-dimethylmorpholine], for which the IC50 is 16 nM.
